Laboratory results as given in US10023613B2, “Peptidomimetic macrocycles as modulators of MCL-1” (AILERON Therapeutics, Inc., priority 2015, dated 2018).
Bridge positions count the residues as written; N and C are the ends. Square brackets hold non-standard residues; d marks the D form. Peptide text beside a SMILES is read from it. R8 = C=CCCCCCC[C@@](C)(N)C(=O)O; S5 = C=CCCC[C@](C)(N)C(=O)O

Test system: Human Raji cells
Type: cell-based
Details: Raji Cell Viability, 48 h, 5% serum
Description: BIM peptidomimetic macrocycles were tested for cell killing at various concentrations. Human Raji cells were treated with increasing doses of peptidomimetic macrocycles corresponding to SEQ ID NO. 763 (FIGS. 1 and 2), 1143 (FIGS. 1-3), and 1621 (FIGS. 3 and 4). An % Viable cells was calculated for each dose of the peptidomimetic macrocycle from a non-linear fit of response vs dose (GraphPad Prism). […]

CC[C@H](C)[C@H](NC(C)=O)C(=O)N[C@@H](Cc1c[nH]c2ccccc12)C(=O)N[C@H](C(=O)N[C@@H](C)C(=O)N[C@@H](CCC(N)=O)C(=O)N[C@@H](C)C(=O)N[C@@H](CC(C)C)C(=O)N[C@@H](CCCNC(=N)N)C(=O)N[C@]1(C)CCCCCCC=CCCC[C@@](C)(C(=O)N[C@@H](Cc2ccc(O)cc2)C(=O)N[C@@H](Cc2ccc(O)cc2)C(=O)N[C@@H](C)C(N)=O)NC(=O)[C@H](CC(N)=O)NC(=O)[C@H](Cc2ccccc2)NC(=O)[C@H](CCC(=O)O)NC(=O)[C@H](CC(=O)O)NC(=O)CNC(=O)[C@H]([C@@H](C)CC)NC1=O)[C@@H](C)CC [compound 1647] (Ac-IWIAQALR[R8]IGDEFN[S5]YYA-NH2; staple 9-16)
EC50: > 40 µM
